Where a name gives a salt, the structure may show the parent alone. Read-outs that look alike come from different tables or passages of the source.

By ED50 is commonly meant the dose at which the effect has come halfway, by size or by number of responders. As a reminder, the LD50 is the dose at which mortality reaches 50%.

A short description of one data set: in vivo. To be noted: rat.
Another data set deals with ileum. The following applies: rat.
The nature of another data set: acute toxicity. The following applies: in vivo, rat. On the procedure:
(§1) All experiments were carried out on rats.

In another data set the test system is Shay ulcer. The data set can be described thus: Shay ulcer-inhibiting effect, method of H. Shay et al. The format is in vivo. To be noted: po, rat. On the procedure:
as §1

Another data set deals with gastric acid secretion. The data set can be described thus: inhibition of gastric juice secretion, method of H. Shay et al. To be noted: po; rat. The format is in vivo. On the procedure: as §1
For the next data set, the system named is immobilisation ulcer. As to the kind of experiment: immobilisation ulcer inhibition, method of Borsi et al. Format: in vivo. The following applies: po, rat, p.o., read-out: Ulcer-inhibiting effect ED50, immob. On the procedure: as §1
For the next data set, the system named is insuline ulcer. The data set can be described thus: insulin ulcer inhibition, method of Borsi et al. The format is in vivo. The following applies: po, rat, p.o., read-out: Ulcer-inhibiting effect ED50, insulin. How it is done: as §1
Where [1] appears, read: ip, i.p., read-out: Acute toxicity LD50, i.p.
[2] abbreviates: po, p.o., read-out: Acute toxicity LD50, p.o.

Description for ileum: (§2) The effects of the new compounds exerted on the gastric acid secretion and Shay ulcer was examined according to the method of H. Shay et al. (Gastroenterology 5, 43/1945/), while their inhibition effect exerted on immobilisation and insuline ulcer was tested according to the method of Borsi et al. (Acta Pharm. Hung. 38, 151 /1968/). […] All experiments were carried out on rats. As reference substance, methantheline (diethyl-/2-hydroxyethyl/-methylammonium bromide xanthene-9-carboxylate) was used.
Description for in vivo: as §2

For the molecule `CC(C)CNCC(=O)Nc1nc(-c2cccnc2)cs1` [Example 24, 2-(Isobutylamino-acetamido)-4-(3'-pyridyl)-thiazole dihydrochloride], the ED50 was > 100 mg/kg in the data set “in vivo”; > 40 mg/kg in the data set on Shay ulcer; 23 mg/kg with gastric acid secretion; > 40 mg/kg in the data set with immobilisation ulcer; 20 mg/kg in the data set on insuline ulcer. Moreover, the “Anticholinergic effect, ED50, ileum” value in the data set with ileum is > 1 gamma. Further, the LD50 in the data set “acute toxicity” (setting [1]) turned out to be 200 mg/kg; in “acute toxicity” (setting [2]) it was 350 mg/kg.

As for `O=C(CNC1CC1)Nc1nc(-c2ccncc2)cs1` [Example 33, 2-cyclopropylamino-acetamido-4-(4'-pyridyl)-thiazole dihydrochloride], the figures for the ED50 in “in vivo” and with gastric acid secretion were > 100 mg/kg and 20 mg/kg, respectively. Moreover, the “Anticholinergic effect, ED50, ileum” value in the data set on ileum is reported as > 1 gamma. In addition, the LD50 in the data set “acute toxicity” (setting [1]) worked out at 600 mg/kg; in “acute toxicity” (setting [2]), 900 mg/kg.

Regarding `O=C(CNc1ccccc1)Nc1nc(-c2cccnc2)cs1` [Example 16, 2-(Phenylamino-acetamido)-4-(3'-pyridyl)-thiazole], the ED50 in “in vivo” was > 100 mg/kg; with Shay ulcer it was > 40 mg/kg; in the data set on gastric acid secretion it was > 40 mg/kg; in the data set on immobilisation ulcer it was > 40 mg/kg; in the data set with insuline ulcer, > 40 mg/kg. For the same molecule, in the data set with ileum, the “Anticholinergic effect, ED50, ileum” value was > 1 gamma. Also, the LD50 is > 1000 mg/kg in “acute toxicity” (setting [1]) and > 2000 mg/kg in the data set “acute toxicity” (setting [2]).

Take `O=C(CN1CCOCC1)Nc1nc(-c2cccnc2)cs1` [Example 18, 2-(4'-Morpholino-acetamido)-4-(3"-pyridyl)-thiazole]: the results for the ED50 in “in vivo”, in the data set with Shay ulcer and in the data set with gastric acid secretion were > 100 mg/kg, > 40 mg/kg and > 40 mg/kg, respectively. In the data set with ileum, the “Anticholinergic effect, ED50, ileum” value was > 1 gamma. In addition, the 50% lethal dose (LD50) in “acute toxicity” (setting [1]) is > 1000 mg/kg; in the data set “acute toxicity” (setting [2]), 1300 mg/kg.

Consider `O=C(CN1CCCCCCC1)Nc1nc(-c2cccnc2)cs1` [Example 19, 2-(Heptamethyleneimino-acetamido)-4-(3'-pyridyl)-thiazole], for which the ED50 is > 100 mg/kg in “in vivo”, > 40 mg/kg with Shay ulcer and > 40 mg/kg with gastric acid secretion. In addition, in the data set with ileum, the “Anticholinergic effect, ED50, ileum” value is listed as > 1 gamma. Also, the LD50 in “acute toxicity” (setting [1]) is > 1000 mg/kg; in the data set “acute toxicity” (setting [2]), > 2000 mg/kg.

With `Cc1sc(NC(=O)CNCCO)nc1-c1cccnc1` [Example 32, 2-(2'-hydroxyethylamino-acetamido)-4-(3"-pyridyl)-5-methyl-thiazole], the ED50 was > 100 mg/kg in the data set “in vivo”; > 40 mg/kg in the data set with Shay ulcer; 35 mg/kg in the data set on gastric acid secretion; > 40 mg/kg with immobilisation ulcer; > 40 mg/kg in the data set with insuline ulcer. Further, in the data set on ileum, the “Anticholinergic effect, ED50, ileum” value is reported as > 1 gamma. The LD50 is 400 mg/kg in “acute toxicity” (setting [1]) and > 1500 mg/kg in the data set “acute toxicity” (setting [2]).

As to `CCCCCCCCNCC(=O)Nc1nc(-c2cccnc2)cs1` [Example 28, 2-(n-Octylamino-acetamido)-4-(3'-pyridyl)-thiazole dihydrochloride], the ED50 is > 100 mg/kg in “in vivo”, > 40 mg/kg in the data set on Shay ulcer and 40 mg/kg in the data set with gastric acid secretion. The “Anticholinergic effect, ED50, ileum” value with ileum was > 1 gamma. Moreover, the LD50 in the data set “acute toxicity” (setting [1]) is 200 mg/kg; in “acute toxicity” (setting [2]) it was 800 mg/kg.

On to `CCCCCCNCC(=O)Nc1nc(-c2cccnc2)cs1` [Example 27, 2-(n-Hexylamino-acetamido)-4-(3'-pyridyl)-thiazole dihydrochloride], for which the ED50 is > 100 mg/kg in “in vivo”; 50 mg/kg with Shay ulcer; 30 mg/kg in the data set on gastric acid secretion; 25 mg/kg in the data set with immobilisation ulcer; 20 mg/kg with insuline ulcer. Besides, in the data set with ileum, the “Anticholinergic effect, ED50, ileum” value is listed as > 1 gamma. Also, the LD50 in “acute toxicity” (setting [1]) stood at 300 mg/kg; in “acute toxicity” (setting [2]), 450 mg/kg.

Turning to `CCNCC(=O)Nc1nc(-c2cccnc2)cs1` [Example 4, 2-(Ethylamino-acetamido)-4-(3'-pyridyl)-thiazole], the ED50 in the data set “in vivo” is > 100 mg/kg; in the data set with Shay ulcer it was > 40 mg/kg; in the data set with gastric acid secretion, 16 mg/kg; in the data set with immobilisation ulcer, 40 mg/kg; in the data set on insuline ulcer it was 12 mg/kg. Moreover, the “Anticholinergic effect, ED50, ileum” value in the data set on ileum is given as > 1 gamma. For the same molecule, the LD50 in “acute toxicity” (setting [1]) is 240 mg/kg; in “acute toxicity” (setting [2]) it was 550 mg/kg.

Consider `CCN(CC)CC(=O)Nc1nc(-c2cccnc2)cs1` [Example 5, 2-(Diethylamino-acetamido)-4-(3'-pyridyl)-thiazole], for which the ED50 in the data set “in vivo” was > 100 mg/kg; in the data set with Shay ulcer, > 40 mg/kg; with gastric acid secretion it was 40 mg/kg; in the data set with immobilisation ulcer, 40 mg/kg; in the data set with insuline ulcer it was > 40 mg/kg. Besides, in the data set with ileum, the “Anticholinergic effect, ED50, ileum” value is > 1 gamma. For the same molecule, the LD50 in “acute toxicity” (setting [1]) was 460 mg/kg; in the data set “acute toxicity” (setting [2]) it was 1400 mg/kg.

As to `O=C(CNC1CC1)Nc1nc(-c2cccnc2)cs1` [Example 2, 2-cyclopropylamino-acetamido-4-(3'-pyridyl)-thiazole], the ED50 in the data set “in vivo” was > 100 mg/kg; in the data set on Shay ulcer it was 40 mg/kg; with gastric acid secretion, 8 mg/kg; with immobilisation ulcer, 27 mg/kg; with insuline ulcer, 6 mg/kg. Also, the “Anticholinergic effect, ED50, ileum” value in the data set on ileum is given as > 1 gamma. Also, the LD50 in “acute toxicity” (setting [1]) came out at 310 mg/kg; in “acute toxicity” (setting [2]) it was 420 mg/kg.

Turning to `O=C(CN1CCCCC1)Nc1nc(-c2cccnc2)cs1` [Example 17, 2-(Pentamethyleneimino-acetamido)-4-(3'-pyridyl)-thiazole], the ED50 in the data set “in vivo” is > 100 mg/kg; with Shay ulcer it was > 40 mg/kg; in the data set on gastric acid secretion, > 40 mg/kg; in the data set on immobilisation ulcer, > 40 mg/kg; in the data set with insuline ulcer it was > 40 mg/kg. Further, the “Anticholinergic effect, ED50, ileum” value in the data set on ileum is > 1 gamma. In addition, the LD50 in the data set “acute toxicity” (setting [1]) was 650 mg/kg; in the data set “acute toxicity” (setting [2]), 1300 mg/kg.

As for `Cc1sc(NC(=O)CNC2CC2)nc1-c1cccnc1` [Example 31, 2-cyclopropylamino-acetamido-4-(3'-pyridyl)-5-methyl-thiazole dihydrochloride], the ED50 in “in vivo” is > 100 mg/kg; in the data set on Shay ulcer, 50 mg/kg; with gastric acid secretion it was 19 mg/kg; in the data set with immobilisation ulcer, 30 mg/kg; with insuline ulcer, 20 mg/kg. In addition, the “Anticholinergic effect, ED50, ileum” value in the data set with ileum is recorded as > 1 gamma. Further, the figures for the LD50 in “acute toxicity” (setting [1]) and in “acute toxicity” (setting [2]) were 500 mg/kg and 1000 mg/kg, respectively.

In the case of `CC[N+](C)(CC)CCOC(=O)C1c2ccccc2Oc2ccccc21` [Methantheline, diethyl-/2-hydroxyethyl/-methylammonium bromide xanthene-9-carboxylate, reference compound], the ED50 in the data set “in vivo” was determined as 17 mg/kg; with Shay ulcer it was 15.2 mg/kg; with gastric acid secretion, 20 mg/kg; with immobilisation ulcer it was 20.7 mg/kg; with insuline ulcer it was 11.5 mg/kg. Besides, the “Anticholinergic effect, ED50, ileum” value with ileum was 3×10^-^5 gamma. Also, the LD50 in “acute toxicity” (setting [1]) is 76 mg/kg; in “acute toxicity” (setting [2]) it was 320 mg/kg.

Regarding `O=C(CNCc1ccccc1)Nc1nc(-c2cccnc2)cs1` [Example 8, 2-(Benzylamino-acetamido)-4-(3'-pyridyl)-thiazole], the ED50 in the data set “in vivo” is > 100 mg/kg; in the data set with Shay ulcer, > 40 mg/kg; with gastric acid secretion it was 20 mg/kg. Moreover, the “Anticholinergic effect, ED50, ileum” value in the data set with ileum is given as > 1 gamma. Moreover, the values for the LD50 in the data set “acute toxicity” (setting [1]) and in “acute toxicity” (setting [2]) were > 1000 mg/kg and 1000 mg/kg, respectively.

The values are drawn from patent US3963735A, “Acylated 2-aminothiazole derivatives” (Egyt Gyogyszervegyeszeti Gyar, priority 1973, dated 1976).
